Measured values published in paper PMC6193938, “Characterization of a novel AICARFT inhibitor which potently elevates ZMP and has anti-tumor activity in murine models” (Scientific Reports, 2018).
Read-outs that look alike come from different tables or passages of the source.

System: panel of human cell lines
Assay: In vitro proliferation assay, Cell Titer Glo, two doubling times, 298 cell lines
Type: cell-based
Details: Homo sapiens, read-out: ABS_IC50_VALUE
Text: Cell Titer Glo measures ATP, thus the IC50s represent both the effect on purine production and cell proliferation, which are related. […] Folates are actively taken up in cells by reduced folate carrier (SLC19A1), proton-coupled folate transporter (SLC46A1), and the FOLR1 folate receptor[17]. Once inside the cell, folates are trapped by polyglutamation catalyzed by folylpolyglutamate synthetase (FPGS). […] Gene expression data for ATIC, GART, APRT, HPRT, FOLR1, SLC19A1, SLC46A1 & FPGS are shown in Fig. 2, since these genes were anticipated to predict sensitivity. […] The MDA-MB-231 cell line is reduced folate carrier (SLC19A1) negative due to epigenetic silencing.
Cells were cultured using recommended culture conditions unless noted otherwise (Supplemental Table 3). Cells were plated, dosed with compound and incubated at 37 °C for approximately 2 doubling times as determined for each cell line. Cell Titer Glo (Promega) assay was used to measure proliferation according to manufacturer’s recommendations by measuring luminescence with Flexstation3 (Molecular Devices) with 500 ms integration time. […] The % response was fit to a four-parameter logistic equation using ACTIVITYBASE 4.0 to determine the absolute IC50 values.
Cell Lines: Cell lines of adrenal gland, autonomic ganglia, biliary tract, blood ALL, blood AML, blood CML, blood hodgkin lymphoma, blood lymphoma, blood multiple myeloma, blood NHL, blood RAEB, bone, breast ER+, breast fibroblast, breast fibroblast mixed, breast HER2, breast normal, breast triple negative, cervix, CNS, endometrium, eye, fibroblast normal, kidney ns, kidney renal, large intestine, liver, liver normal, lung adenocarcinoma, lung ns, lung NSCLC, lung NSCLC mixed, lung SCLC, lung squamous, melanoma, melanoma normal, esophagus adenocarcinoma, esophagus ns, esophagus squamous, ovary, pancreas adenocarcinoma, pancreas ductal carcinoma, pancreas ns, pleura mesothelioma, prostate adenocarcinoma, prostate small cell, salivary gland, small intestine, soft tissue, stomach, testis, thyroid, thyroid squamous, umbilical vein endothelial cell normal, upper aerodigestive tract squamous, urinary tract ns, urinary tract transitional cell carcinoma, and vulva squamous origin were obtained from ATCC, CASTCC, CLS, DSMZ, ECACC, HSRRB, ICLC, JCRB, NCI, Riken and SNU cell banks. The murine A9 cell line was acquired from the ATCC (CCL-1.4).

O=c1[nH]ccc2cc(F)c(NS(=O)(=O)c3ccc(N4CC[C@@H](O)C4)s3)cc12 [LSN3213128, N-(6-Fluoro-1-oxo-1,2-dihydroisoquinolin-7-yl)-5-[(3R)-3-hydroxypyrrolidin-1-yl]thiophene-2-sulfonamide]
IC50 (NCI-H661, NCI-H661, lung): 16.2 µM
IC50 (NCI-H716, NCI-H716, large intestine): 1.34 µM
IC50 (NCI-H929, NCI-H929, haematopoietic and lymphoid tissue): > 20 µM
IC50 (NCI-H1048, NCI-H1048, lung): > 20 µM
IC50 (NCI-H1092, NCI-H1092, lung): > 20 µM
IC50 (NCI-H1105, lung): > 20 µM
IC50 (NCI-H1155, NCI-H1155, lung): 13.6 µM
IC50 (NCI-H1299, NCI-H1299, lung): 1.32 µM
IC50 (NCI-H1341, lung): 2.83 µM
IC50 (NCI-H1355, NCI-H1355, lung): > 20 µM
IC50 (NCI-H1395, NCI-H1395, lung): 12.6 µM
IC50 (NCI-H1435, NCI-H1435, lung): > 20 µM
IC50 (NCI-H1437, NCI-H1437, lung): 1.37 µM
IC50 (NCI-H1573, NCI-H1573, lung): > 20 µM
IC50 (NCI-H1581, NCI-H1581, lung): 16.5 µM
IC50 (NCI-H1618, lung): > 20 µM
IC50 (NCI-H1623, NCI-H1623, lung): > 20 µM
IC50 (NCI-H1648, NCI-H1648, lung): > 20 µM
IC50 (NCI-H1650, NCI-H1650, lung): 8.18 µM
IC50 (NCI-H1651, NCI-H1651, lung): > 20 µM
IC50 (NCI-H1666, NCI-H1666, lung): > 20 µM
IC50 (NCI-H1694, NCI-H1694, lung): > 20 µM
IC50 (NCI-H1703, NCI-H1703, lung): > 20 µM
IC50 (NCI-H1734, NCI-H1734, lung): > 20 µM
IC50 (NCI-H1781, NCI-H1781, lung): > 20 µM
IC50 (NCI-H1792, NCI-H1792, lung): 8.57 µM
IC50 (NCI-H1793, NCI-H1793, lung): > 20 µM
IC50 (NCI-H1836, NCI-H1836, lung): 2.47 µM
IC50 (NCI-H1838, NCI-H1838, lung): > 20 µM
IC50 (NCI-H1876, lung): > 20 µM
IC50 (NCI-H1930, NCI-H1930, lung): 17.8 µM
IC50 (NCI-H1944, NCI-H1944, lung): > 20 µM
IC50 (NCI-H1975, NCI-H1975, lung): 2.15 µM
IC50 (NCI-H2009, NCI-H2009, lung): > 20 µM
IC50 (NCI-H2023, NCI-H2023, lung): > 20 µM
IC50 (NCI-H2029, NCI-H2029, lung): > 20 µM
IC50 (NCI-H2030, NCI-H2030, lung): 8.19 µM
IC50 (NCI-H2052, NCI-H2052, pleura): > 20 µM
IC50 (NCI-H2066, NCI-H2066, lung): > 20 µM
IC50 (NCI-H2081, NCI-H2081, lung): > 20 µM
IC50 (NCI-H2085, lung): > 20 µM
IC50 (NCI-H2087, NCI-H2087, lung): > 20 µM
IC50 (NCI-H2122, NCI-H2122, lung): 1.22 µM
IC50 (NCI-H2126, NCI-H2126, lung): > 20 µM
IC50 (NCI-H2170, NCI-H2170, lung): 13.7 µM
IC50 (NCI-H2171, NCI-H2171, lung): > 20 µM
IC50 (NCI-H2227, lung): > 20 µM
IC50 (NCI-H2228, NCI-H2228, lung): 7.07 µM
IC50 (NCI-H2286, NCI-H2286, lung): 17.6 µM
IC50 (NCI-H2347, NCI-H2347, lung): > 20 µM
IC50 (NCI-H2405, NCI-H2405, lung): > 20 µM
IC50 (NCI-H2452, NCI-H2452, pleura): > 20 µM
IC50 (NCI-N87, NCI-N87, stomach): 2.39 µM
IC50 (NCI-SNU-5, stomach): > 20 µM
IC50 (NCI-SNU-16, stomach): 1.18 µM
IC50 (NH-6, autonomic ganglia): > 20 µM
IC50 (NMC-G1, central nervous system): > 20 µM
IC50 (NOMO-1, NOMO-1, haematopoietic and lymphoid tissue): 2.03 µM
IC50 (NUGC-3, NUGC-3, stomach): 11.9 µM
IC50 (NUGC-4, NUGC-4, stomach): 8.38 µM
IC50 (OCUM1, OCUM-1, stomach): 16.5 µM
IC50 (OE19, OE19, oesophagus): 6.52 µM
IC50 (OE33, OE33, oesophagus): 12.7 µM
IC50 (ONS-76, ONS-76, central nervous system): 3.6 µM
IC50 (OVCAR-3, OVCAR-3, ovary): 12.7 µM
IC50 (OVMANA, ovary): 2.59 µM
IC50 (P31-FUJ, haematopoietic and lymphoid tissue): 0.71 µM
IC50 (PC-3, prostate): > 20 µM
IC50 (PF-382, PF-382, haematopoietic and lymphoid tissue): 2.13 µM
IC50 (Panc 04.03, Panc 04.03, pancreas): 5.44 µM
IC50 (Pfeiffer, haematopoietic and lymphoid tissue): 2.55 µM
IC50 (QGP-1, QGP-1, pancreas): 10.7 µM
IC50 (RD, soft tissue): 9.13 µM
IC50 (RD-ES, bone): 8.54 µM
IC50 (REH, haematopoietic and lymphoid tissue): 6.9 µM
IC50 (RERF-LC-MS, lung): 1.92 µM
IC50 (RKN, ovary): > 20 µM
IC50 (RKO, large intestine): 8.04 µM
IC50 (RL95-2, RL95-2, endometrium): > 20 µM
IC50 (RL, haematopoietic and lymphoid tissue): 0.76 µM
IC50 (RMG-I, ovary): > 20 µM
IC50 (RPMI-7951, RPMI-7951, skin): > 20 µM
IC50 (RPMI-8226, RPMI-8226, haematopoietic and lymphoid tissue): 12.6 µM
IC50 (RT4, urinary tract): > 20 µM
IC50 (RT112/84, RT112/84, urinary tract): 1.92 µM
IC50 (Raji, haematopoietic and lymphoid tissue): 7.5 µM
IC50 (Rec1, REC-1, haematopoietic and lymphoid tissue): > 20 µM
IC50 (SCC-4, SCC-4, upper aerodigestive tract): > 20 µM
IC50 (SCC-9, SCC-9, upper aerodigestive tract): > 20 µM
IC50 (SCC-15, SCC-15, upper aerodigestive tract): > 20 µM
IC50 (SCC-25, SCC-25, upper aerodigestive tract): > 20 µM
IC50 (SH-10-TC, stomach): > 20 µM
IC50 (SJRH30, SJRH30, soft tissue): 5.13 µM
IC50 (SJSA-1, SJSA-1, bone): > 20 µM
IC50 (SK-BR-3, SK-BR-3, breast): 6.52 µM
IC50 (SK-CO-1, SK-CO-1, large intestine): 12.8 µM
IC50 (SK-ES1, SK-ES-1, bone): > 20 µM
IC50 (SK-HEP1, SK-HEP-1, liver): 11.1 µM
IC50 (SK-LMS-1, SK-LMS-1, soft tissue): 0.91 µM
IC50 (SK-LU-1, SK-LU-1 (lung, adenocarcinoma)): > 20 µM
IC50 (SK-MEL3, SK-MEL-3 (skin, malignant melanoma)): > 20 µM
IC50 (SK-MEL-2, SK-MEL-2 (skin, malignant melanoma)): > 20 µM
IC50 (SK-MEL-5, SK-MEL-5 (skin, melanoma)): > 20 µM
IC50 (SK-MEL-24, SK-MEL-24 (skin, malignant melanoma)): > 20 µM
IC50 (SK-MEL-28, SK-MEL-28 (skin, malignant melanoma)): 0.47 µM
IC50 (SK-MEL-31 (skin, malignant melanoma)): > 20 µM
IC50 (SK-MES-1, SK-MES-1 (lung; squamous cell carcinoma)): 2.25 µM
IC50 (SK-N-AS, SK-N-AS (brain, neuroblastoma)): > 20 µM
IC50 (SK-OV-3, SK-OV-3 (ovary, adenocarcinoma)): > 20 µM
IC50 (SNB-19, SNB19 (central nervous system, Glioblastoma)): 0.79 µM
IC50 (SNG-M (endometrium, endometrial adenocarcinoma)): > 20 µM
IC50 (SNU-182, SNU-182 (liver, hepatocellular carcinoma)): 20.7 µM
IC50 (SNU-216, SNU-216 (stomach, Human gastric carcinoma)): > 20 µM
IC50 (SNU-387, SNU-387 (liver, pleomorphic hepatocellular carcinoma)): 27 µM
IC50 (SNU-398, SNU-398 (liver, hepatocellular carcinoma)): 16.4 µM
IC50 (SNU-423, SNU-423 (liver, pleomorphic hepatocellular carcinoma)): 21.7 µM
IC50 (SNU-449, SNU-449 (liver, hepatocellular carcinoma)): 11.3 µM
IC50 (SNU-475, SNU-475 (liver, hepatocellular carcinoma)): 24.8 µM
IC50 (SNU-C1, SNU-C1 (large intestine, colon, adenocarcinoma)): 4.55 µM
IC50 (SNU-C2A (large intestine, cecum, colorectal carcinoma)): > 20 µM
IC50 (SW48, SW48 (large intestine, colon, colorectal adenocarcinoma)): 6.86 µM
IC50 (SW480, SW480 (large intestine, colon, colorectal adenocarcinoma)): 1.97 µM
IC50 (SW837, SW837 (large intestine, rectum, adenocarcinoma)): 1.28 µM
IC50 (SW1271, SW 1271 (lung; small cell lung carcinoma)): 10.4 µM
IC50 (SW1353, SW 1353 (bone, chondrosarcoma)): > 20 µM
IC50 (SW1417, SW1417 (large intestine, colon, colorectal adenocarcinoma)): > 20 µM
IC50 (SW1463, SW1463 (large intestine, rectum, colorectal adenocarcinoma)): 15.1 µM
IC50 (SW-620, SW620 (large intestine, colon, adenocarcinoma)): > 20 µM
IC50 (T84 (large intestine, colon, colorectal carcinoma)): > 20 µM
IC50 (T98G, T98G (central nervous system, glioblastoma multiforme)): 3.62 µM
IC50 (TCC-SUP, TCCSUP (urinary bladder, transitional cell carcinoma)): 4.2 µM
IC50 (TE-1 (oesophagus, esophageal squamous cell carcinoma)): 1.08 µM
IC50 (TE-5 (oesophagus, esophageal squamous cell carcinoma)): 4.79 µM
IC50 (TE-9 (oesophagus, esophageal squamous cell carcinoma)): 1.17 µM
IC50 (TE-11, TE-11 (oesophagus, esophageal squamous cell carcinoma)): 2.02 µM
IC50 (TE-15, TE-15 (oesophagus, esophageal squamous cell carcinoma)): 0.73 µM
IC50 (THP-1, THP-1 (haematopoietic and lymphoid tissue, leukemia, acute monocytic)): 5.52 µM
IC50 (TOV21G, TOV-21G (ovary, clear cell carcinoma)): > 20 µM
IC50 (TT (thyroid, carcinoma)): 10.6 µM
IC50 (Toledo, Toledo (haematopoietic and lymphoid tissue, diffuse large cell lymphoma)): > 20 µM
IC50 (U-251, U251 (central nervous system, human glioma)): 3.02 µM
IC50 (U-266, U-266 (haematopoietic and lymphoid tissue, myeloma; plasmacytoma)): 13.4 µM
IC50 (UACC-812, UACC-812 (breast, ductal carcinoma)): > 20 µM
IC50 (UMUC3, UM-UC-3 (urinary bladder, transitional cell carcinoma)): 1.93 µM
IC50 (VCaP, VCaP (prostate, prostate cancer)): 7.74 µM
IC50 (VMRC-RCZ (kidney, renal cancer)): 7.61 µM
IC50 (WM 266-4, WM-266-4 (skin, melanoma)): > 20 µM
IC50 (WM-115, WM-115 (skin, malignant melanoma)): > 20 µM
IC50 (ZR-75-30, ZR-75-30 (breast, ductal carcinoma)): > 20 µM
